# Measured values published in patent publication US20090022687A1, “Novel Pharmaceuticals That Use Anti-HLA Antibodies” (Chugai Seiyaku Kabushiki Kaisha, priority 2005, published 2009).
# B1: IFN-γ: interferon γ, Ogamma 100, Otsuka Pharmaceutical; amino acid sequence SEQ ID NO: 3 (protein, listed as Homo sapiens)
# chain: MKYTSYILAFQLCIVLGSLGCYCQDPYVKEAENLKKYFNAGHSDVADNGTLFLGILKNWKEESDRKIMQSQIVSFYFKLFKNFKDDQSIQKSVETIKEDMNVKFFNSNKKKRDDFEKLTNYSVTDLNVQRKAIHELIQVMAELSPAAKTGKRKRSQMLFRGRRASQ
# B2: IFN-α: interferon α, OIF 2,500,000 IU, Otsuka Pharmaceutical; amino acid sequence SEQ ID NO: 1 (protein, listed as Homo sapiens)
# chain: MASPFALLMVLVVLSCKSSCSLGCDLPETHSLDNRRTLMLLAQMSRISPSSCLMDRHDFGFPQEEFDGNQFQKAPAISVLHELIQQIFNLFTTKDSSAAWDEDLLDKFCTELYQQLNDLEACVMQEERVGETPLMNADSILAVKKYFRRITLYLTEKKYSPCAWEVVRAEIMRSLSLSTNLQERLRRKE
# What was measured:
# [1] = system: myeloma cell line RPMI 8226; experiment: Effects of signal transduction inhibitors on cell injury by 2D7-DB; conditions: 60 minutes of pretreatment, 2D7-DB 1 μg/mL
# Method: This time, the present inventors further examined the antitumor mechanism of 2D7-DB. First, 60 minutes of pretreatment was performed using various signal transduction inhibitors, and their effects on cell injury of the myeloma cell line RPMI 8226 after 2D7-DB (1 μg/mL) addition were examined (FIG. 6A).
# [2] = system: myeloma cell line ARH-77; experiment: Actin staining, localization of 2D7-DB and actin; type: cell-based, human; conditions: ARH-77, 30 minutes of pretreatment with inhibitor 0,1 μM
# Method: Furthermore, actin staining of the cells was performed to examine the localization of 2D7-DB (green) and actin (red) (FIG. 6B). […] On the other hand, actin aggregation due to 2D7-DB was not observed in the bone marrow stromal cell line KM102 expressing HLA-A. Thus, actin aggregation effect and cytotoxic activity by 2D7-DB were considered specific to myeloma cells and lymphoid cells, and while 2D7-DB is useful for myeloma and autoimmune diseases, it was considered to have little effect on normal tissues.
# [3] = system: HLA-A expression in IM-9 cells; experiment: Effects of IFNs on HLA-A expression (flow cytometry using 2D7); type: cell-based, human; conditions: IFN 100 U/mL for 48 hours
# Method: IM-9 cells were treated with IFN-α (100 U/mL) or IFN-γ (100 U/mL) for 48 hours. Cell surface expression of HLA-A was analyzed by flow cytometry using 2D7. The staining properties of IFN-treated cells are shown by tick lines, and those of untreated cells are shown by solid lines. Negative control staining properties are shown by dotted lines. (B) A graph indicating the enhancement of 2D7-DB-mediated cytotoxicity by IFN is shown. IM-9 cells were treated with IFN-α (100 U/mL) or IFN-γ (100 U/mL) for 48 hours, and then cultured with 2D7-DB (0.1 or 1 μg/mL) for 24 hours. Cell viabilities were determined by WST-8 assays.
# Since cell surface expression of HLA class I is enhanced by IFN stimulation, effects of IFNs on HLA-A expression and 2D7-DB-mediated cytotoxicity were examined using IM-9 cells. After treating IM-9 cells with IFN-α (100 U/mL, OIF 2,500,000 IU, Otsuka Pharmaceutical) or IFN-γ (100 U/mL, Ogamma 100, Otsuka Pharmaceutical) for 48 hours, flow cytometry was performed. […]
# Cell surface expression analysis of HLA class I by flow cytometry was performed as follows using FITC-labeled 2D7 mAb or FITC-labeled anti-HLA-ABC common region mAb (Chemicon, San Diego, Calif.). […] Next, the cells were washed twice with PBS, and analyzed using an EPICS XL flow cytometer (Beckman Coulter, Japan). […] HLA class I expression levels were evaluated as GeoMFI using the CellQuest software (BID Biosciences).
molecule,measurement,setting,value
COC[C@H]1OC(=O)c2coc3c2[C@@]1(C)C1=C(C3=O)[C@@H]2CCC(=O)[C@@]2(C)C[C@H]1OC(C)=O [Wortmannin],effect on cytotoxicity of 2D7-DB,[1]; inhibitor 10 μM,did not show effects
C=C1[C@@H](C)[C@H]2[C@H](Cc3ccccc3)NC(=O)[C@]23[C@H](OC(C)=O)/C=C/[C@@](C)(O)C(=O)[C@@H](C)C/C=C/[C@H]3[C@@H]1O [cytochalasin D],effect on cytotoxicity of 2D7-DB,[1]; inhibitor 1 μM,almost completely suppressed
C/C1=C/C(=O)O[C@@H]2C[C@@H](CC[C@H](C)/C=C\C=C\CC1)O[C@@](O)([C@@H]1CSC(=O)N1)C2 [latrunculin A],effect on cytotoxicity of 2D7-DB,[1]; inhibitor 0.1 μM,almost completely suppressed
same,actin aggregation after 2D7-DB addition,[2],aggregation was not observed
B1,HLA-A expression,[3],up-regulated
B2,HLA-A expression,[3],up-regulated
